Results taken from patent US20240059688A1, “CONOLIDINE ANALOGUES AS SELECTIVE ACKR3 MODULATORS FOR THE TREATMENT OF CANCER” (Luxembourg Institute of Health (LIH), priority 2020, published 2024).

Tests used:
Format in all cases: cell-based
DOR = DOR (Homo sapiens, UniProt P41143); experiment: DOR calcium mobilization agonist/antagonist screen (CHO-RD-HGA16 cells); set-up: host or cells: CHO-RD-HGA16; conditions: single concentration; for Emax: CHO-RD-HGA16, agonist screen, control agonist DPDPE; for DOR Calcium % DPDPE Inhibition: antagonist screen, vs EC60 of DPDPE
Chain of DOR (P41143 whole entry): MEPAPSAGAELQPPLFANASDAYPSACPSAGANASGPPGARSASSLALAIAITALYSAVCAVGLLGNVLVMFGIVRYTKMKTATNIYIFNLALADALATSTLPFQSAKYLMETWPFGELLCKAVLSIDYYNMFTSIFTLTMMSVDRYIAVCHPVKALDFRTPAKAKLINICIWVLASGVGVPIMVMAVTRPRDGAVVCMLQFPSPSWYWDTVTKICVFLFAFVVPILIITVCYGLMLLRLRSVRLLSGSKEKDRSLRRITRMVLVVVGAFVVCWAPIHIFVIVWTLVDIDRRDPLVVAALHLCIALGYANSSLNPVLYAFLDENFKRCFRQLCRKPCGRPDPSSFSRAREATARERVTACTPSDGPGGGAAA
Procedure: (§1) Compounds were evaluated for kappa (KOR), mu (MOR), and delta (DOR) opioid receptor agonist and antagonist activity in three individual cell lines overexpressing Gαq16 (CHO-RD-HGA16, Molecular Devices) and the human kappa, mu, and delta opioid receptors, respectively. The day before the assay, cells were plated into 96-well black-walled assay plates at 30,000 cells/well in Ham's F12 supplemented with 10% fetal bovine serum, and 100 units of penicillin and streptomycin. The cells were incubated overnight at 37° C., 5% CO2. Prior to the assay, Calcium 5 dye (Molecular Devices) was reconstituted according to the manufacturer's instructions. The reconstituted dye was diluted 1:40 in pre-warmed (37° C.) assay buffer (1×HBSS, 20 mM HEPES, 2.5 mM probenecid, pH 7.4 at 37° C.). Growth medium was removed and the cells were gently washed with 100 μL of pre-warmed (37° C.) assay buffer. The cells were incubated for 45 minutes at 37° C., 5% CO2 in 200 μL of the diluted Calcium 5 dye. For the agonist screen, a single concentration of each test compound and receptor-specific controls (U69,593, DAMGO, and DPDPE for KOR, MOR, and DOR, respectively) were prepared at 10× the desired final concentration in 1% DMSO/assay buffer, aliquoted into a 96-well polystyrene plate, and warmed to 37° C. After the dye-loading incubation period, pretreatment solution was added to each well (25 μL of 9% DMSO/assay buffer) and, after 15 min, the plate was read with a FlexStation II (Molecular Devices). Calcium-mediated changes in fluorescence were monitored every 1.52 seconds over a 60 second time period, with the FlexStation II adding 50 μL of test compounds at the 19 second time point (excitation at 485 nm, detection at 525 nm). Peak kinetic reduction (SoftMax, Molecular Devices) relative fluorescence units (RFU) were used to calculate % control agonist Emax with the equation % Emax=(test compound RFU/control agonist RFU)×100. For the antagonist screens, the same procedure was followed except that the pretreatment solution consisted of the test compounds (prepared at […] the desired final concentration in 9% DMSO/assay buffer) and the FlexStation added the EC60 concentration (prepared at 10× the desired final concentration in 1% DMSO/assay buffer) of each respective control agonist. Peak RFU were used to calculate % control EC60 inhibition with the equation % inhibition=((EC60 RFU−test compound RFU)/EC60 RFU)×100. When IC50 determinations were made, the same antagonist screen procedure was followed except that cells were pretreated with 8-pt concentration-response curves of the test compounds. Peak RFU were plotted against the log of compound concentration using non-linear regression analysis to generate IC50 values (GraphPad Prism). Each test sample was analyzed in duplicate in two independent experiments.

KOR = KOR (Homo sapiens, UniProt P41145); experiment: KOR calcium mobilization agonist/antagonist screen (CHO-RD-HGA16 cells); set-up: host or cells: CHO-RD-HGA16; conditions: single concentration; for Emax: CHO-RD-HGA16, agonist screen, control agonist U69,593; for KOR Calcium % U69, 593 Inhibition: antagonist screen, vs EC60 of U69,593
Chain of KOR (P41145 whole entry): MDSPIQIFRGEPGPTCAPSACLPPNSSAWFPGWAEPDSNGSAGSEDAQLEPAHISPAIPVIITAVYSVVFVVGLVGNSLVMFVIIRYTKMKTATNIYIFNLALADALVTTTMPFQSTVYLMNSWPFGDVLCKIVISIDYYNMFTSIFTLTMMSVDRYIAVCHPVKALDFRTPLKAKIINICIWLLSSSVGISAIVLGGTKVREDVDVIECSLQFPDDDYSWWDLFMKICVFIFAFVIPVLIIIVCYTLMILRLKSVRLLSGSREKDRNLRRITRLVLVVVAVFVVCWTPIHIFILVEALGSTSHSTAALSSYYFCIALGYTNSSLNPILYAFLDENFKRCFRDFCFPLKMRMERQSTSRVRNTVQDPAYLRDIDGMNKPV
Procedure: as §1

MOR = MOR (Homo sapiens, UniProt P35372); experiment: MOR calcium mobilization agonist/antagonist screen (CHO-RD-HGA16 cells); set-up: host or cells: CHO-RD-HGA16; conditions: single concentration; for Emax: CHO-RD-HGA16, agonist screen, control agonist DAMGO; for MOR Calcium % DAMGO Inhibition: antagonist screen, vs EC60 of DAMGO
Chain of MOR (P35372 whole entry): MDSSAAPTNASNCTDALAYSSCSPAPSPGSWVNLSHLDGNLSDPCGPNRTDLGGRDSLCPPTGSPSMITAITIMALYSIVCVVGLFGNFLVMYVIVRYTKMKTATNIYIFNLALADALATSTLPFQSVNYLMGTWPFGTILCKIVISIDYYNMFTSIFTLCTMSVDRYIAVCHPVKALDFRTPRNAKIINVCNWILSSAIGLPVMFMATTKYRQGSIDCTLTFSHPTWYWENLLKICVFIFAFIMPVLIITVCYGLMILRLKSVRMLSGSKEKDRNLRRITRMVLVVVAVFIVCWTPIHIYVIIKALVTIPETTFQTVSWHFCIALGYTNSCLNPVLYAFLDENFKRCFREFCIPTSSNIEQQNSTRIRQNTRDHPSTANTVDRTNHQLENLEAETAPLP
Procedure: as §1

ACKR3 = ACKR3 (Homo sapiens, UniProt P25106); experiment: ACKR3 β-arrestin recruitment assay (PathHunter, β-galactosidase complementation); conditions: for Emax: read-out: ACKR3 β-arrestin % CXCL12 Emax ± SEM; for EC50: stable human ACKR3-β-arrestin-2-CHO cells, mean ± SEM, at least two independent experiments in duplicate
Chain of ACKR3 (P25106 whole entry): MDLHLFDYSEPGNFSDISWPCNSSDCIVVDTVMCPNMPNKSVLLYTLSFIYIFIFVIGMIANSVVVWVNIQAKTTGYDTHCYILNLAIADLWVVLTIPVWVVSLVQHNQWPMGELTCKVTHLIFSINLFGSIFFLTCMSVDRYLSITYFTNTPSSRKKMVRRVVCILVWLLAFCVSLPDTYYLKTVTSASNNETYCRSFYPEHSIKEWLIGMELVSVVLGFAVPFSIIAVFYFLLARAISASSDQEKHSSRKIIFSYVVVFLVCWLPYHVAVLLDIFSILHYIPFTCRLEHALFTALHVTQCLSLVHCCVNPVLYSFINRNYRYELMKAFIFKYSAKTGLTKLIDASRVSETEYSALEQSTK
Procedure, shortened: (§2)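 Agonist mode in PathHunter CHO cells expressing human ACKR3-β-arrestin-2, compounds added in DPBS/1% DMSO for 1.5 hr at 37° C, then detection 1 hr at room temperature, luminescence read. CXCR4 run in C2C12 cells with a 3 hr Cell Plating Reagent 4 preincubation. EC50 and % Emax from three-parameter fits, CXCL-12 as reference agonist; ≥2 independent experiments in duplicate.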

human CXCR4 = molecular target: T1, human CXCR4 (Homo sapiens, UniProt P61073); experiment: CXCR4 β-arrestin recruitment assay (PathHunter); conditions: human CXCR4-C2Cl2 cells, relative to CXCL-12
T1 construct: host or cells: C2C12
T1 sequence (P61073 whole entry): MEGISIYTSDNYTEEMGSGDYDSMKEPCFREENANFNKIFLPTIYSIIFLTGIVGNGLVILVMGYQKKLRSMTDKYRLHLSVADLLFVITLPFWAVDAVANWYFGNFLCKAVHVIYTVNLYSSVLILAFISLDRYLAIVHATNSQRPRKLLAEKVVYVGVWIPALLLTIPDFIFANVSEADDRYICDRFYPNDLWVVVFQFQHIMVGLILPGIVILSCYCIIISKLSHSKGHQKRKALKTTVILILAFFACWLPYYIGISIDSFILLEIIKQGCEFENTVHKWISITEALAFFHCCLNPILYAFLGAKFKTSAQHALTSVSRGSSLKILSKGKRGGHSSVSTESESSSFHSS
Procedure, shortened: as §2

CaV 3.2 = molecular target: T2, CaV 3.2 (Homo sapiens, UniProt O95180); experiment: CaV 3.2 calcium assay in stable human CaV3.2-HEK293 cells; conditions: control agonist calcium chloride
T2 construct: expressed in transfected cells
T2 sequence (O95180 whole entry): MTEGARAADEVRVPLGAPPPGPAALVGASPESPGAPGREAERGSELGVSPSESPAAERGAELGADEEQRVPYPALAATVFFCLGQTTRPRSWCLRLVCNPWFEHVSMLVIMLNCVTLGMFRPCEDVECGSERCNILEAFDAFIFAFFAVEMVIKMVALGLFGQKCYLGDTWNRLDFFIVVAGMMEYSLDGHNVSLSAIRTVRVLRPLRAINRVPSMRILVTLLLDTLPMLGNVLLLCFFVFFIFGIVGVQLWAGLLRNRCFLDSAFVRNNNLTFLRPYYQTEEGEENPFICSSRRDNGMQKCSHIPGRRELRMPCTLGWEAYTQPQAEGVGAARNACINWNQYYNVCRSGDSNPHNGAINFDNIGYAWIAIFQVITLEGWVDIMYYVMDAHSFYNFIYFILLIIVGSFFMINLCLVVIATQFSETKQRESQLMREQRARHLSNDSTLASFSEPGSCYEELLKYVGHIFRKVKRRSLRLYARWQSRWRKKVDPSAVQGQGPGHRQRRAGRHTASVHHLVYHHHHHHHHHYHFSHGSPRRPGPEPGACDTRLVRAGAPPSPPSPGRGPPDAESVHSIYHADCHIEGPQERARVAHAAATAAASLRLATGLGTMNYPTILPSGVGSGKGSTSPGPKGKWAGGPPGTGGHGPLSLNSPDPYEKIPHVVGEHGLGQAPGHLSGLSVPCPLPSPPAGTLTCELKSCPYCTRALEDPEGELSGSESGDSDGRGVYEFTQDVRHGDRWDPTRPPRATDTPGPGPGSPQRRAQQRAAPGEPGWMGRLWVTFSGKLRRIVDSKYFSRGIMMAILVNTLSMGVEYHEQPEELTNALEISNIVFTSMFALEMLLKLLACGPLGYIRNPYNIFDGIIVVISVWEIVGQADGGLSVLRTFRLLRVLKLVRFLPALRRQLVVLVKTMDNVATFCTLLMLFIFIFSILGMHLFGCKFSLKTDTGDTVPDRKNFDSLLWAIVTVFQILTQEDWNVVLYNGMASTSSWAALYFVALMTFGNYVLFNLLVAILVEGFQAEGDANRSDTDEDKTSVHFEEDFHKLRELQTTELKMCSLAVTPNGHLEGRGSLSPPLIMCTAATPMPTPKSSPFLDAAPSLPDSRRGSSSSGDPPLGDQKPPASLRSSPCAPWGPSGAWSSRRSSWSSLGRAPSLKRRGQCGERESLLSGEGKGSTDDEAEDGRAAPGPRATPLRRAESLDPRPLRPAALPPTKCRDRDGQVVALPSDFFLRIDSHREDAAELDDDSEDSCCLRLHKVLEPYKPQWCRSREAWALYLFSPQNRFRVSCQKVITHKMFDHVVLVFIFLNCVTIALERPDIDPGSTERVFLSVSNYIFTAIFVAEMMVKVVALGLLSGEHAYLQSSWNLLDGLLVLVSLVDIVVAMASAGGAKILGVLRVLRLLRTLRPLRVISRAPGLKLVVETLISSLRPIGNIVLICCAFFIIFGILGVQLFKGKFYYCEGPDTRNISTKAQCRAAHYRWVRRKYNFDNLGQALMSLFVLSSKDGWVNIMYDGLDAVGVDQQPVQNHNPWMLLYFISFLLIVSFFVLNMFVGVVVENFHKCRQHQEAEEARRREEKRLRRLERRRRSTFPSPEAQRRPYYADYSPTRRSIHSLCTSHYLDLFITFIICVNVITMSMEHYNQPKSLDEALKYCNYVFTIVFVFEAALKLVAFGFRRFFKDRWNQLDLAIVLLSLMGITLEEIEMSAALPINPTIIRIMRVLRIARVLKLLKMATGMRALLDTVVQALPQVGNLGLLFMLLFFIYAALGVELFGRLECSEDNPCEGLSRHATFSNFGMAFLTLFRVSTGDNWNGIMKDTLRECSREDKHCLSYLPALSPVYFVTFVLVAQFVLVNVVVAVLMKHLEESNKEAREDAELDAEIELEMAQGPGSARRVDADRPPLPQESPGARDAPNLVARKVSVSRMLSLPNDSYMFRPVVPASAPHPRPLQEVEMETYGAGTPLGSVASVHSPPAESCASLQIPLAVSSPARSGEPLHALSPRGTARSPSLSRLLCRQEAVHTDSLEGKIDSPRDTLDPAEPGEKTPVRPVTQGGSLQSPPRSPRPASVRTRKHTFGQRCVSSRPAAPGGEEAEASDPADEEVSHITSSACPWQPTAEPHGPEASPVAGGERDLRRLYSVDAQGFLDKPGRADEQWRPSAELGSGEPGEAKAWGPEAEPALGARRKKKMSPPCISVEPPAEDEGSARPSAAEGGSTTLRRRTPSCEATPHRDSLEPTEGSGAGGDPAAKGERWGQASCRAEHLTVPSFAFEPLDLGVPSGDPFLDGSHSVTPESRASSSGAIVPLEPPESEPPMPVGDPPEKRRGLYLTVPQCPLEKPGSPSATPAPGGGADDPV
Procedure: as §1
Compounds were evaluated for activity at CaV 3.2 using stable human CaV3.2-HEK293 cells and the control agonist calcium chloride. The day before the assay, cells were plated into 96-well black-walled assay plates coated with poly-D-lysine in DMEM-F12 supplemented with 10% fetal bovine serum, 100 units penicillin/streptomycin, and 500 μM sodium pyruvate, and incubated at 37° C., 5% CO2 overnight. Prior to the assay, Calcium 5 dye (Molecular Devices) was reconstituted according to the manufacturer instructions. The reconstituted dye was diluted 1:10 in pre-warmed (37° C.) assay buffer (1×HBSS, […], […], pH 7.4 at 37° C.). The cells were incubated for 45 minutes at 37° C., 5% CO2 in 200 μL of the diluted Calcium 5 dye. Compounds were prepared as described above and the plate was read with a FLIPR Tetra (Molecular Devices). Calcium-mediated changes in fluorescence were monitored every 1 second over a 60 second time period, with the Tetra adding 25 μL of appropriate compound at the 10 second time point (excitation at 470-495 nm, detection at 515-575 nm). […]

Row | Structure (SMILES) | Emax (DOR) [%] | DOR Calcium % DPDPE Inhibition (DOR) [%] | Emax (KOR) [%] | KOR Calcium % U69, 593 Inhibition (KOR) [%] | Emax (MOR) [%] | MOR Calcium % DAMGO Inhibition (MOR) [%] | Emax (ACKR3) [%] | EC50 (ACKR3) [nM] | CXCR4 β-arrestin % CXCL-12Emax (n = 2) (human CXCR4) [%] | CaV 3.2 % CaCl2 Inhibition (CaV 3.2) [%]
1 | C/C=C1/CN(CCc2ccc(F)cc2)CC[C@H]1C(=O)c1cc2ccccc2[nH]1 [WW-9, [(3E,4R)-3-ethylidene-1-(4-fluorophenethyl)piperidin-4-yl](1H-indol-2-yl)methanone] | 0 | 31 | 1 | 23 | 0 | 34 | 132 ± 6 | 2070 ± 180 | 10 | 45
2 | C=C1c2[nH]c3ccccc3c2CN2CC[C@@H]1/C(=C\C)C2 [WW-16, (4E,5R)-4-ethylidene-6-methylidene-1,3,4,5,6,7-hexahydro-2,5-ethanoazocino[4,3-b]indole] | 0 | 18 | 2 | 23 | 0 | 15 | 81 ± 5 | 4620 ± 410 | 6 | 21
3 | C/C=C1/CN(Cc2ccc(OC)cc2)CC[C@H]1C(=O)c1cc2ccccc2[nH]1 [WW-7, (3E,4R)-(3-ethylidene-1-(4-methoxybenzyl)piperidin-4-yl)(1H-indol-2-yl)methanone] | 6 | 16 | 14 | 38 | 2 | 14 | 139 ± 2 | 1870 ± 96 | 0 | 50
